According to patent US20260042764A1, “COMPOSITIONS AND METHODS FOR INHIBITION OF KRAS” (TheRas, Inc., priority 2022, published 2026):

Key:
[1] = molecular target: T1, Avi-KRAS G12D (2-169) GTP/RAF1 RBD-3xFLAG (51-131) (Homo sapiens, UniProt P01116, G12D); test: Raf1-KRAS G12D-GTP disruption HTRF assay (Biological Example 3); assay type: binding; conditions: KRAS G12D, GTP-loaded
T1 construct: Avi-KRAS G12D (2-169)
Method in brief: (§1)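 HTRF PPI read-out (ex 320 nm, em 615 nm) after 1 h RT incubation with shaking; data as % activity vs DMSO (100%), IC50 from curve fit. Complex 50 nM, RBD reagent 75 nM; compound 30-0.005 μM, 3-fold.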

[2] = molecular target: T2, Avi-KRAS G12R (1-169) GppNHp/RAF1 RBD-3xFLAG (52-151) (Homo sapiens, UniProt P01116, G12R); test: Raf1-KRAS G12R-GppNHP disruption HTRF assay (Biological Example 1); assay type: binding; conditions: KRAS G12R, GppNHp-loaded; class symbols
T2 construct: Avi-KRAS G12R (1-169)
T2 sequence (P01116 1-169 isoform P01116-2 G12R): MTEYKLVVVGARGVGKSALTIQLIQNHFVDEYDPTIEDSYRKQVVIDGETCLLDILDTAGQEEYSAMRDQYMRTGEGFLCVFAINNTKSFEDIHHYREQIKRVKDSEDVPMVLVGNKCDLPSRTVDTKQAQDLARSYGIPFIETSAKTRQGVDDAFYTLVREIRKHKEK
Method in brief: (§2)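 Protein mix, 1 h RT, 700 rpm; reagent mix, 1 h RT, 700 rpm; HTRF read. Buffer Tris pH 7.5/NaCl/MgCl2/BSA/Tween, 10% DMSO. Output % activity, DMSO = 100%.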

[3] = molecular target: T3, Avi-KRAS WT (2-169) GTP/RAF1 RBD-3xFLAG (51-131) (Homo sapiens, UniProt P01116); test: Raf1-KRAS WT-GTP disruption HTRF assay (Biological Example 3); assay type: binding; conditions: KRAS WT, GTP-loaded
T3 construct: Avi-KRAS WT (2-169)
T3 sequence (P01116 2-169 isoform P01116-2): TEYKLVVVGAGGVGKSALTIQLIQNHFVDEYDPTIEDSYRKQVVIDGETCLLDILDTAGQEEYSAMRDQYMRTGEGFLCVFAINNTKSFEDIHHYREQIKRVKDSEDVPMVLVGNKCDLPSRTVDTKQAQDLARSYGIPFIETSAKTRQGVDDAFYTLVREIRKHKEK
Method in brief: as §1

[4] = molecular target: T4, Avi-KRAS G12V (2-169) GTP/RAF1 RBD-3xFLAG (51-131) (Homo sapiens, UniProt P01116, G12V); test: Raf1-KRAS G12V-GTP disruption HTRF assay (Biological Example 3); assay type: binding; conditions: KRAS G12V, GTP-loaded
T4 construct: Avi-KRAS G12V (2-169)
T4 sequence (P01116 2-169 isoform P01116-2 G12V): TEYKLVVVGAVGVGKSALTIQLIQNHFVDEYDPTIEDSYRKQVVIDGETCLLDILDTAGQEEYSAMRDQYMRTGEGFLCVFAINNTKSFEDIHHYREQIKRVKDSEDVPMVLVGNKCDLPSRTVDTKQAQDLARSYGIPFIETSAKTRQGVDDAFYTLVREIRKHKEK
Method in brief: as §1

[5] = test system: GP2d cells (KRAS G12D); test: Cell-based pERK HTRF assay in GP2d cell (Biological Example 2); conditions: GP2d (KRAS G12D) cells
Method in brief: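 Phospho-ERK is measured by HTRF following a 60 min compound exposure at 0.25% DMSO, with a 9-point half-log curve topping at 1 μM or 100 nM.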

[6] = molecular target: T5, Avi-KRAS G12V (1-169) GppNHp/RAF1 RBD-3xFLAG (52-151) (Homo sapiens, UniProt P01116, G12V); test: Raf1-KRAS G12V-GppNHP disruption HTRF assay (Biological Example 1); assay type: binding; conditions: KRAS G12V, GppNHp-loaded; class symbols
T5 construct: Avi-KRAS G12V (1-169)
T5 sequence (P01116 1-169 isoform P01116-2 G12V): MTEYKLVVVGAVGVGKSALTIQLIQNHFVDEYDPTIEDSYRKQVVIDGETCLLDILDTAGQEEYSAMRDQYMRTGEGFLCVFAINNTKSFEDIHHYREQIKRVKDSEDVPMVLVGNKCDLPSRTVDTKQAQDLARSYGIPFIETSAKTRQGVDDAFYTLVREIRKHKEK
Method in brief: as §2

T1 sequence (P01116 2-169 isoform P01116-2 G12D): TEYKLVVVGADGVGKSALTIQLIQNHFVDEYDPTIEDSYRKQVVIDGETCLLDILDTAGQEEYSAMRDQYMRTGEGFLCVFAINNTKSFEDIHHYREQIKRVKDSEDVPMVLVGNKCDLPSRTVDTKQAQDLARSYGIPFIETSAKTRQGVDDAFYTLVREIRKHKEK

SMILES | IC50 [1] | IC50 [2] | IC50 [3] | IC50 [4] | IC50 ([5]; GP2d) | IC50 ([5]; GP2d, pERK HTRF, class symbols) | IC50 [6] | IC50 [5]
CCN(c1nc(OC[C@@]23CCCN2C[C@H](F)C3)nc2c(F)c(-c3ccc(F)c4sc(N)c(C#N)c34)c(C(F)(F)F)cc12)[C@H]1CCN(C(=O)N2CC(OC)C2)C1 (atropisomer, axis not shown) [Compound 607] | ≤ 100 nM | < 100 nM | ≤ 100 nM | ≤ 100 nM | < 100 nM | < 100 nM | < 100 nM | 
CC(=O)N1CC[C@H](N(c2nc(OC[C@@]34CCCN3C[C@H](F)C4)nc3c(F)c(-c4ccc(F)c5sc(N)c(C#N)c45)c(C(F)(F)F)cc23)C2CC2)C1 (atropisomer, axis not shown) [Compound 608] | 100 to 1000 nM | 100 to 1000 nM | 1000 to 10000 nM | 100 to 1000 nM | < 100 nM | < 100 nM | 100 to 1000 nM | 
C[C@H]1Cn2nc(C(=O)N(C)C)cc2CN1c1nc(OC[C@@]23CCCN2C[C@H](F)C3)nc2c(F)c(-c3ccc(F)c4sc(N)c(C#N)c34)c(C(F)(F)F)cc12 (atropisomer, axis not shown) [Compound 610] | 100 to 1000 nM | 100 to 1000 nM | 1000 to 10000 nM | 100 to 1000 nM | < 100 nM | < 100 nM | 100 to 1000 nM | 
CCN(c1nc(OC[C@@]23CCCN2C[C@H](F)C3)nc2c(F)c(-c3ccc(F)c4sc(N)c(C#N)c34)c(C(F)(F)F)cc12)[C@H]1CCN(C(=O)CC(F)F)C1 (atropisomer, axis not shown) [Compound 611] | ≤ 100 nM | < 100 nM | 100 to 1000 nM | ≤ 100 nM | < 100 nM | < 100 nM | < 100 nM | 
CCN(c1nc(OC[C@@]23CCCN2C[C@H](F)C3)nc2c(F)c(-c3ccc(F)c4sc(N)c(C#N)c34)c(C(F)(F)F)cc12)[C@H]1CC(=O)N(CC(F)F)C1 (atropisomer, axis not shown) [Compound 613] | ≤ 100 nM | 100 to 1000 nM | 100 to 1000 nM | ≤ 100 nM | < 100 nM | < 100 nM | 100 to 1000 nM | 
CCN(c1nc(OC[C@@]23CCCN2C[C@H](F)C3)nc2c(F)c(-c3ccc(F)c4sc(N)c(C#N)c34)c(C(F)(F)F)cc12)[C@H]1CC(=O)N(C)C1 (atropisomer, axis not shown) [Compound 614] | 100 to 1000 nM | < 100 nM | 100 to 1000 nM | 100 to 1000 nM | < 100 nM | < 100 nM | < 100 nM | 
CCN(c1nc(OC[C@@]23CCCN2C[C@H](F)C3)nc2c(F)c(-c3ccc(F)c4sc(N)c(C#N)c34)c(C(F)(F)F)cc12)[C@H]1CC(=O)N(C2CC2)C1 (atropisomer, axis not shown) [Compound 615] | ≤ 100 nM | < 100 nM | 100 to 1000 nM | ≤ 100 nM | < 100 nM | < 100 nM | < 100 nM | 
CCN(c1nc(OC[C@@]23CCCN2C[C@H](F)C3)nc2c(F)c(-c3ccc(F)c4sc(N)c(C#N)c34)c(C(F)(F)F)cc12)[C@H]1CCN(C(=O)N2CCN(C(C)=O)CC2)C1 (atropisomer, axis not shown) [Compound 619] | 100 to 1000 nM | < 100 nM | 100 to 1000 nM | 100 to 1000 nM | < 100 nM | < 100 nM | < 100 nM | 
CC(=O)N1CC[C@H](N(CCF)c2nc(OC[C@@]34CCCN3C[C@H](F)C4)nc3c(F)c(-c4ccc(F)c5sc(N)c(C#N)c45)c(C(F)(F)F)cc23)C1 (atropisomer, axis not shown) [Compound 622] | ≤ 100 nM | < 100 nM | 100 to 1000 nM | 100 to 1000 nM | < 100 nM | < 100 nM | < 100 nM | 
CCN1C[C@@H](N(C)c2nc(OC[C@@]34CCCN3C[C@H](F)C4)nc3c(F)c(-c4ccc(F)c5sc(N)c(C#N)c45)c(C(F)(F)F)cc23)CC1=O (atropisomer, axis not shown) [Compound 636] | 100 to 1000 nM | < 100 nM | 100 to 1000 nM | 100 to 1000 nM | < 100 nM | < 100 nM | < 100 nM | 
CCN(c1nc(OC[C@@]23CCCN2C[C@H](F)C3)nc2c(F)c(-c3ccc(F)c4sc(N)c(C#N)c34)c(C(F)(F)F)cc12)[C@H]1CCN(C(=O)C2CN(C(C)=O)C2)C1 (atropisomer, axis not shown) [Compound 638] | ≤ 100 nM | < 100 nM | 100 to 1000 nM | ≤ 100 nM | < 100 nM | < 100 nM | < 100 nM | 
C=C(C)C(=O)N1CC[C@H](N(CC)c2nc(OC[C@@]34CCCN3C[C@H](F)C4)nc3c(F)c(-c4ccc(F)c5sc(N)c(C#N)c45)c(C(F)(F)F)cc23)C1 (atropisomer, axis not shown) [Compound 673] | ≤ 100 nM | < 100 nM | 100 to 1000 nM | 100 to 1000 nM | < 100 nM | < 100 nM | < 100 nM | 
C/C=C/C(=O)N1CC[C@H](N(CC)c2nc(OC[C@@]34CCCN3C[C@H](F)C4)nc3c(F)c(-c4ccc(F)c5sc(N)c(C#N)c45)c(C(F)(F)F)cc23)C1 (atropisomer, axis not shown) [Compound 674] | ≤ 100 nM | < 100 nM | ≤ 100 nM | ≤ 100 nM | 100 to 1000 nM | < 100 nM | < 100 nM | 
CCN(c1nc(OC[C@@]23CCCN2C[C@H](F)C3)nc2c(F)c(-c3ccc(F)c4sc(N)c(C#N)c34)c(C(F)(F)F)cc12)[C@H]1CCN(C(=O)O[C@@H]2CCOC2)C1 (atropisomer, axis not shown) [Compound 683] | ≤ 100 nM | < 100 nM | 100 to 1000 nM | ≤ 100 nM | < 100 nM | < 100 nM | < 100 nM | 
CCN(c1nc(OC[C@@]23CCCN2C[C@H](F)C3)nc2c(F)c(-c3ccc(F)c4sc(N)c(C#N)c34)c(C(F)(F)F)cc12)[C@H]1CCN(C(=O)[C@@H]2C[C@@H]2C)C1 (atropisomer, axis not shown) [Compound 689] | 100 to 1000 nM | < 100 nM | 100 to 1000 nM | 100 to 1000 nM | < 100 nM | < 100 nM | < 100 nM | 
CCN(c1nc(OC[C@@]23CCCN2C[C@H](F)C3)nc2c(F)c(-c3ccc(F)c4sc(N)c(C#N)c34)c(C(F)(F)F)cc12)[C@H]1C[C@H](COC)N(C(=O)C2CC2)C1 (atropisomer, axis not shown) [Compound 696] | ≤ 100 nM | < 100 nM | 100 to 1000 nM | 100 to 1000 nM | < 100 nM | < 100 nM | < 100 nM | 
CCN(c1nc(OC[C@@]23CCCN2C[C@H](F)C3)nc2c(F)c(-c3ccc(F)c4sc(N)c(C#N)c34)c(C(F)(F)F)cc12)[C@@H]1CC(=O)N(C2CC2)C1 (atropisomer, axis not shown) [Compound 703] | 1000 to 10000 nM | 1000 to 10000 nM | 1000 to 10000 nM | 1000 to 10000 nM |  | < 100 nM | 1000 to 10000 nM | < 100 nM
CCN(c1nc(OC[C@@]23CCCN2C[C@H](F)C3)nc2c(F)c(-c3ccc(F)c4sc(N)c(C#N)c34)c(C(F)(F)F)cc12)[C@H]1C[C@H](C)N(C(=O)OC)C1 (atropisomer, axis not shown) [Compound 704] | 100 to 1000 nM | < 100 nM | 100 to 1000 nM | 100 to 1000 nM | < 100 nM | < 100 nM | < 100 nM | 
CCN(c1nc(OC[C@@]23CCCN2C[C@H](F)C3)nc2c(F)c(-c3ccc(F)c4sc(N)c(C#N)c34)c(C(F)(F)F)cc12)[C@H]1CCN(C(=O)c2ccns2)C1 (atropisomer, axis not shown) [Compound 726] | 100 to 1000 nM | < 100 nM | 100 to 1000 nM | 100 to 1000 nM | < 100 nM | < 100 nM | < 100 nM | 
CCN(c1nc(OC[C@@]23CCCN2C[C@H](F)C3)nc2c(F)c(-c3ccc(F)c4sc(N)c(C#N)c34)c(C(F)(F)F)cc12)[C@H]1CCN(C(=O)N(C)C)[C@@H]1C (atropisomer, axis not shown) [Compound 749] | ≤ 100 nM | < 100 nM | ≤ 100 nM | ≤ 100 nM | < 100 nM | < 100 nM | < 100 nM | 
